Measured values: US20260250251A1, “HETEROCYCLIC COMPOUNDS AS PI3Ka INHIBITORS” (Pikavation Therapeutics, Inc., priority 2022, published 2026)

Legend:
[1] = test system: SKBR3 (PIK3CA WT) cells, pSer473 AKT; experiment: pS473 AKT assay in SKBR3 cells; type: cell-based; details: Homo sapiens, SK-BR-3, treated 2 h, read-out: SKBR3_IC50
Method in brief: (§1)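 Cells exposed 2 h to a range of PI3Kα inhibitor concentrations, then paraformaldehyde-fixed and probed for pSer473 AKT with rabbit primary overnight at 4 °C and HRP anti-rabbit secondary. Chemiluminescent cell-based ELISA read-out; IC50 from concentration-response fitting.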

[2] = test system: T47D (PIK3CA H1047R) cells, pSer473 AKT; experiment: pS473 AKT assay in T47D cells; type: cell-based; details: Homo sapiens, treated 2 h, read-out: T47D_IC50
Method in brief: as §1

Compound	IC50 [1] [nM]	IC50 [2] [nM]
Cn1nc(N)c2c(Oc3cc(F)ccc3Cl)c(NC(=O)c3cc(F)cc(C(F)(F)F)c3)cc(Cl)c21 [Example 24, N-(3-Amino-7-chloro-4-(2-chloro-5-fluorophenoxy)-1-methyl-1H-indazol-5-yl)-3-fluoro-5-(trifluoromethyl)benzamide]	< 1000	< 1000
CC(=O)n1nc(N)c2c(Oc3cc(F)ccc3Cl)c(NC(=O)c3cc(F)cc(C(F)(F)F)c3)cc(Br)c21 [Example 82, N-(1-Acetyl-3-amino-7-bromo-4-(2-chloro-5-fluorophenoxy)-1H-indazol-5-yl)-3-fluoro-5-(trifluoromethyl)benzamide]	1000 to 5000	< 1000
CNC(=O)Cn1nc(N)c2c(Oc3cc(F)ccc3Cl)c(NC(=O)c3cc(F)cc(C(F)(F)F)c3)ccc21 [Example 9, N-(3-Amino-4-(2-chloro-5-fluorophenoxy)-1-(2-(methylamino)-2-oxoethyl)-1H-indazol-5-yl)-3-fluoro-5-(trifluoromethyl)benzamide]	1000 to 5000	< 1000
Cn1nc(N)c2c(Oc3cc(F)ccc3Cl)c(NC(=O)c3cc(F)cc(C(F)(F)F)c3)cc(C#CC(C)(C)N)c21 [Example 40, N-(3-Amino-7-(3-amino-3-methylbut-1-yn-1-yl)-4-(2-chloro-5-fluorophenoxy)-1-methyl-1H-indazol-5-yl)-3-fluoro-5-(trifluoromethyl)benzamide]	< 1000	< 1000
Cn1nc(N)c2c(Oc3cc(F)ccc3Cl)c(NC(=O)c3cc(F)cc(C(F)(F)F)c3)cc(CCC#N)c21 [Example 59, N-(3-Amino-4-(2-chloro-5-fluorophenoxy)-7-(2-cyanoethyl)-1-methyl-1H-indazol-5-yl)-3-fluoro-5-(trifluoromethyl)benzamide]	< 1000	< 1000
Nc1nn2c3c(cc(NC(=O)c4cc(F)cc(C(F)(F)F)c4)c(Oc4cc(F)ccc4Cl)c13)CN(C1CC1)C2=O [Example 71, N-(2-Amino-3-(2-chloro-5-fluorophenoxy)-7-cyclopropyl-8-oxo-7,8-dihydro-6H-pyrazolo[4,5,1-ij]quinazolin-4-yl)-3-fluoro-5-(trifluoromethyl)benzamide]	< 1000	< 1000
Nc1nn2c3c(cc(NC(=O)c4cc(F)cc(C(F)(F)F)c4)c(Oc4cc(F)ccc4Cl)c13)NC(=O)C2 [Example 32, N-(6-Amino-7-(2-chloro-5-fluorophenoxy)-2-oxo-2,3-dihydro-1H-pyrazolo[1,5,4-de]quinoxalin-8-yl)-3-fluoro-5-(trifluoromethyl)benzamide]	< 1000	< 1000
C#Cc1cc(NC(=O)c2cc(F)cc(C(F)(F)F)c2)c(Oc2cc(F)ccc2Cl)c2c(N)nn(C)c12 [Example 47, N-(3-Amino-4-(2-chloro-5-fluorophenoxy)-7-ethynyl-1-methyl-1H-indazol-5-yl)-3-fluoro-5-(trifluoromethyl)benzamide]	1000 to 5000	< 1000
Nc1nn2c3c(cc(NC(=O)c4cc(F)cc(C(F)(F)F)c4)c(Oc4cc(F)ccc4Cl)c13)CCC2 [Example 22, N-(2-amino-3-(2-chloro-5-fluorophenoxy)-7,8-dihydro-6H-pyrazolo[4,5,1-ij]quinolin-4-yl)-3-fluoro-5-(trifluoromethyl)benzamide]	< 1000	< 1000
CC(=O)N1CCCCC1C#Cc1cc(NC(=O)c2cc(F)cc(C(F)(F)F)c2)c(Oc2cc(F)ccc2Cl)c2c(N)nn(C)c12 (centres unmarked) [Example 79, N-(7-((1-Acetylpiperidin-2-yl)ethynyl)-3-amino-4-(2-chloro-5-fluorophenoxy)-1-methyl-1H-indazol-5-yl)-3-fluoro-5-(trifluoromethyl)benzamide]	1000 to 5000	< 1000
Cn1nc(N)c2c(Oc3cc(F)ccc3Cl)c(NC(=O)c3cc(F)cc(C(F)(F)F)c3)cc(C#Cc3ccccn3)c21 [Example 37, N-(3-Amino-4-(2-chloro-5-fluorophenoxy)-1-methyl-7-(pyridin-2-ylethynyl)-1H-indazol-5-yl)-3-fluoro-5-(trifluoromethyl)benzamide]	1000 to 5000	< 1000
Nc1n[nH]c2ccc(NC(=O)c3cc(F)cc(C(F)(F)F)c3)c(COc3cc(F)ccc3Cl)c12 [Example 6, N-(3-amino-4-((2-chloro-5-fluorophenoxy)methyl)-1H-indazol-5-yl)-3-fluoro-5-(trifluoromethyl)benzamide]	≥ 10000	1000 to 5000
Cn1nc(N)c2c(Oc3cc(F)ccc3Cl)c(NC(=O)c3cc(F)cc(C(F)(F)F)c3)cc(N3CCn4ncnc4C3)c21 [Example 55, N-(3-Amino-4-(2-chloro-5-fluorophenoxy)-7-(5,6-dihydro-[1,2,4]triazolo[1,5-a]pyrazin-7(8H)-yl)-1-methyl-1H-indazol-5-yl)-3-fluoro-5-(trifluoromethyl)benzamide]	1000 to 5000	< 1000
